Our source for the Ki values is patent publication US20060063759A1, “Tricyclic steroid hormone nuclear receptor modulators” (priority 2002, published 2006).

The target in one assay is T1, human MR (Homo sapiens, UniProt P08235).
T1 construct: The full length human MR gene is cloned from a human kidney or human brain cDNA library; His tag from the pAcHLT vector (own knowledge); made in house; host or cells: Sf9 insect cells (baculovirus, pAcHLT transfer vector)
T1 sequence (P08235 1-984): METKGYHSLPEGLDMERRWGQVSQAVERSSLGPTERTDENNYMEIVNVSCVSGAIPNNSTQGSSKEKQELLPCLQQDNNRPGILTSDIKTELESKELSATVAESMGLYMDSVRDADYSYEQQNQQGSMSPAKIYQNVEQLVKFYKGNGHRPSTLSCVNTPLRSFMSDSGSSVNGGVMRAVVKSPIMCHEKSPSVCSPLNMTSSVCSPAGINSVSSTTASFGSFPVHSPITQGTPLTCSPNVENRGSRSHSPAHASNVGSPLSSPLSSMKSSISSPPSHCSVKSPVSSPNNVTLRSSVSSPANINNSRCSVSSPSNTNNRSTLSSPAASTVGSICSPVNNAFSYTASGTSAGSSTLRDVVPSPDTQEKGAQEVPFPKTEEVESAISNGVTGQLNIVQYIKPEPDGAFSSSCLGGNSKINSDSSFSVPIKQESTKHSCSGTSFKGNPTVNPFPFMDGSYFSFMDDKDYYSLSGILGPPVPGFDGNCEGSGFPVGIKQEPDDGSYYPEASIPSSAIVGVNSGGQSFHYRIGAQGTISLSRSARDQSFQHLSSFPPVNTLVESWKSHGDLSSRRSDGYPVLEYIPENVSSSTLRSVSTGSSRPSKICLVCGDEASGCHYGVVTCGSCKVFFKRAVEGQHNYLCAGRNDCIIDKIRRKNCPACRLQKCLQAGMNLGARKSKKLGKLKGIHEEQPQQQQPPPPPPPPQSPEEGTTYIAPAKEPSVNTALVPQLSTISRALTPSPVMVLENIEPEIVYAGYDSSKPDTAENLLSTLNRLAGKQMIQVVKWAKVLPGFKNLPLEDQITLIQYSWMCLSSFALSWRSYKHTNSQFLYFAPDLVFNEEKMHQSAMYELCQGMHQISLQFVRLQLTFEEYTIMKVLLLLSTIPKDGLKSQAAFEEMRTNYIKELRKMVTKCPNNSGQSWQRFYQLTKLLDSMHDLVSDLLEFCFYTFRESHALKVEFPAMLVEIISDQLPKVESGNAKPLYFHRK
The experiment in a line: Mineralocorticoid Receptor Binding Assay ([3H]-aldosterone). The note with it: [3H]-aldosterone binding, human MR expressed in Sf9 cells; read-out: MR Ki. The method, boiled down:
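Receptor source: freeze-thaw lysate of baculovirus-infected Sf9 cells carrying full-length human MR, 20-25 μg protein. Incubation ~16 h at 4 °C with shaking, pH 7.5 buffer containing 30 mM sodium molybdate and 10% glycerol.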

Another assay addresses T2, glucocorticoid receptor (Homo sapiens, UniProt P04150).
T2 construct: containing 50-200 ug of A549 cell extract and 1.86 nM [^3H]-dexamethasone; host or cells: A549 human lung epithelial cells (sonicated cell extract)
T2 sequence (P04150 1-777): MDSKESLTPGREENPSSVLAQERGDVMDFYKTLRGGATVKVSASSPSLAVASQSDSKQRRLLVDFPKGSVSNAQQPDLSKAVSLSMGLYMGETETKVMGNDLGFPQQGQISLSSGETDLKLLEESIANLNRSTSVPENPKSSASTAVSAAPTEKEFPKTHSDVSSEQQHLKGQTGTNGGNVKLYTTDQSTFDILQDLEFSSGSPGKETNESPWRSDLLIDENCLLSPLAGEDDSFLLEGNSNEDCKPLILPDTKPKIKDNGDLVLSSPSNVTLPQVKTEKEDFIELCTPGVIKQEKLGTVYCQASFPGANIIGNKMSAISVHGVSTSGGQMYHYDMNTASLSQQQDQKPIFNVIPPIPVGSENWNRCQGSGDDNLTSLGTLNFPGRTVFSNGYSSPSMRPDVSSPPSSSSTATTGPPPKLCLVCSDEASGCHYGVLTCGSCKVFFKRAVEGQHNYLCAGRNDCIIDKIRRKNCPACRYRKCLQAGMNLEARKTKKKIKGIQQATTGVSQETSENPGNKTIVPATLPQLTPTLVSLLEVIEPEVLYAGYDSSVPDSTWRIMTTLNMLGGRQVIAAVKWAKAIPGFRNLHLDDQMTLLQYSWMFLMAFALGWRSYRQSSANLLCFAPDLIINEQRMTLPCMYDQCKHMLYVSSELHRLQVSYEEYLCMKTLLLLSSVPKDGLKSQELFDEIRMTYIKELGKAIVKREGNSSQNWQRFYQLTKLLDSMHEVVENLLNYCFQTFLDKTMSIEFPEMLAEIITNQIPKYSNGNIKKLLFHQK
Put plainly: Glucocorticoid Receptor Binding Assay ([3H]-dexamethasone, A549 cell extract). The note with it: [3H]-dexamethasone binding, read-out: GR Ki. The method, boiled down: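 Displacement of [3H]-dexamethasone (1.86 nM) from glucocorticoid receptor in sonicated A549 lung epithelial cell extracts, 16 h at 4 °C, pH 7.2 molybdate-containing buffer. Bound radioactivity was scintillation-counted after charcoal/dextran stripping of free ligand.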

pKi: −log10 of the molar value.

With `Nc1n[nH]c2cc(C=C3c4ccccc4CCc4ccccc43)ccc12` [Example 444], the pKi at human MR and on glucocorticoid receptor was more than 6.30 in each case.
As for `Nc1nc2ccc(C=C3c4ccccc4CCc4ccccc43)cc2[nH]1` [Example 445], the figures for the pKi at human MR and on glucocorticoid receptor were more than 6.30 and more than 5.00, respectively.
The matching figures for `CS(=O)(=O)Nc1csc(C=C2c3ccccc3CCc3ccccc32)n1` [Example 446]: more than 6.30 and more than 6.30.
For `O=C1Cc2ccc(C=C3c4ccccc4CCc4ccccc43)cc2N1` [Example 447], in that order: more than 6.30 and more than 6.30.
The matching figures for `O=c1[nH]c2ccc(/C=C3\c4ccccc4CCc4cc(F)ccc43)cc2[nH]1` [Example 448]: more than 6.30 and more than 5.00.
On to `O=c1[nH]c2ccc(/C=C3/c4ccccc4CCc4cc(F)ccc43)cc2[nH]1` [Example 449], for which the pKi (commonly the negative decadic logarithm of the Ki, by convention in mol/L) at human MR was more than 6.30; on glucocorticoid receptor, more than 5.00.
In the case of `O=c1[nH]c2cc(/C=C3/c4ccccc4CCc4cc(F)ccc43)ccc2o1` [Example 450], the negative logarithm of the Ki (pKi) at human MR and on glucocorticoid receptor was more than 6.30 in each case.
In the case of `O=c1[nH]c2cc(/C=C3\c4ccccc4CCc4cc(F)ccc43)ccc2o1` [Example 451], the negative-log Ki (pKi) on human MR is more than 6.30; at glucocorticoid receptor it was more than 5.00.
For `O=c1[nH]c2ccc(/C=C3/c4ccccc4CCc4cc(C(F)F)ccc43)cc2[nH]1` [Example 452], in that order: more than 6.30 and more than 6.00.
For `O=c1[nH]c2ccc(/C=C3\c4ccccc4CCc4cc(C(F)F)ccc43)cc2[nH]1` [Example 453], in that order: more than 6.30 and more than 6.00.
For `Cn1c(=O)[nH]c2cc(C=C3c4ccccc4CCc4ccccc43)ccc21` [Example 454], in that order: more than 6.30 and more than 6.30.
As for `N#Cc1ccc2c(c1)CCc1ccccc1/C2=C/c1ccc2[nH]c(=O)[nH]c2c1` [Example 455], the negative-log Ki (pKi) on human MR was more than 6.30; at glucocorticoid receptor, more than 5.00.
For `N#Cc1ccc2c(c1)CCc1ccccc1/C2=C\c1ccc2[nH]c(=O)[nH]c2c1` [Example 456], in that order: more than 6.30 and more than 5.00.
With `O=c1[nH]c2cc(C=C3c4ccc(F)cc4CCc4cc(F)ccc43)ccc2s1` [Example 457], the pKi at human MR and on glucocorticoid receptor was more than 6.30 in each case.
Regarding `O=c1[nH]c2cc(C=C3c4ccc(F)cc4CCc4cc(F)ccc43)ccc2o1` [Example 458], the pKi on human MR and at glucocorticoid receptor was more than 6.30 throughout.
In the case of `Cn1c(=O)[nH]c2cc(C=C3c4ccc(F)cc4CCc4cc(F)ccc43)ccc21` [Example 459], the pKi on human MR was more than 6.30; at glucocorticoid receptor, more than 6.00.
The matching figures for `Nc1n[nH]c2cc(C=C3c4ccc(F)cc4CCc4cc(F)ccc43)ccc12` [Example 460]: more than 6.30 and more than 6.00.
Turning to `Cn1c(=O)[nH]c2cc(/C=C3/c4ccccc4CCc4cc(F)ccc43)ccc21` [Example 461], the pKi at human MR and on glucocorticoid receptor was more than 6.30 throughout.
Take `Cn1c(=O)[nH]c2cc(/C=C3\c4ccccc4CCc4cc(F)ccc43)ccc21` [Example 462]: the values for the negative logarithm of the Ki (pKi) on human MR and at glucocorticoid receptor were more than 6.30 and more than 6.00, respectively.
Regarding `O=c1[nH]c2ccc(C=C3c4ccccc4CCc4cc(F)cc(F)c43)cc2[nH]1` [Example 463], the figures for the negative logarithm of the Ki (pKi) on human MR and on glucocorticoid receptor were more than 6.30 and more than 5.00, respectively.
On to `CC(C)n1c(=O)[nH]c2cc(C=C3c4ccc(F)cc4CCc4cc(F)ccc43)ccc21` [Example 464], for which the negative-log Ki (pKi) on human MR is more than 6.30; at glucocorticoid receptor, more than 5.00.
`O=c1[nH]c2ccc(/C=C3/c4ccccc4CCc4cccc(Cl)c43)cc2[nH]1` [Example 465]: the figures for the pKi at human MR and at glucocorticoid receptor were more than 6.30 and more than 6.00, respectively.
As to `O=c1[nH]c2ccc(/C=C3\c4ccccc4CCc4cccc(Cl)c43)cc2[nH]1` [Example 466], the negative logarithm of the Ki (pKi) was more than 6.30 on human MR and more than 6.00 at glucocorticoid receptor.
The matching figures for `O=c1[nH]c2cc(C=C3c4ccccc4CCc4ccccc43)ccc2s1` [Example 467]: more than 6.30 and more than 6.30.
With `O=c1[nH]c2cc(/C=C3/c4ccccc4CCc4cc(F)ccc43)ccc2s1` [Example 468], the pKi on human MR and at glucocorticoid receptor was more than 6.30 throughout.
For `O=c1[nH]c2cc(/C=C3\c4ccccc4CCc4cc(F)ccc43)ccc2s1` [Example 469], the negative logarithm of the Ki (pKi) on human MR and on glucocorticoid receptor was more than 6.30 throughout.
Take `O=c1[nH]c2ccc(C=C3c4cccc(F)c4CCc4c(F)cccc43)cc2[nH]1` [Example 470]: the negative-log Ki (pKi) on human MR was more than 6.30; at glucocorticoid receptor it was more than 5.00.
For the molecule `O=c1[nH]c2cc(C=C3c4cccc(F)c4CCc4c(F)cccc43)ccc2o1` [Example 471], the negative logarithm of the Ki (pKi) on human MR and on glucocorticoid receptor was more than 6.30 throughout.
For `O=c1[nH]c2ccc(/C=C3\c4ccccc4CCc4cc(C(F)(F)F)ccc43)cc2[nH]1` [Example 472], the values for the pKi at human MR and at glucocorticoid receptor were more than 6.30 and more than 5.00, respectively.
For the molecule `O=c1[nH]c2ccc(/C=C3/c4ccccc4CCc4cc(C(F)(F)F)ccc43)cc2[nH]1` [Example 473], the negative logarithm of the Ki (pKi) was more than 6.30 at human MR and more than 5.00 at glucocorticoid receptor.
For the molecule `Fc1ccc2c(c1)CCc1ccccc1C2=Cc1cccnc1F` [Example 474], the figures for the negative logarithm of the Ki (pKi) at human MR and on glucocorticoid receptor were more than 6.30 and more than 6.00, respectively.
In the case of `CS(=O)(=O)Nc1cccc(/C=C2\c3ccccc3CCc3sccc32)c1` [Example 475], the values for the pKi on human MR and on glucocorticoid receptor were more than 6.30 and more than 5.00, respectively.
With `CS(=O)(=O)Nc1cccc(/C=C2/c3ccccc3CCc3sccc32)c1` [Example 476], the pKi on human MR and at glucocorticoid receptor was more than 6.30 each time.
Turning to `Nc1cccc(C=C2c3ccccc3CCc3sccc32)c1` [Example 477, 3-(9,10-Dihydro-1-thia-benzo[f]azulen-4-ylidenemethyl)-phenylamine], the pKi was more than 6.30 on human MR and more than 5.00 on glucocorticoid receptor.
For `Nc1cccc(/C=C2\c3ccc(Cl)cc3CCc3sccc32)c1` [Example 478, 3-(7-Chloro-9,10-dihydro-1-thia-benzo[f]azulen-4-ylidenemethyl)-phenylamine], in that order: more than 6.30 and more than 5.00.
As for `CS(=O)(=O)Nc1cccc(/C=C2\c3ccccc3CCc3sc(Cl)cc32)c1` [Example 481, N-[3-(2-Chloro-9,10-dihydro-1-thia-benzo[f]azulen-4-ylidenemethyl)-phenyl]-methanesulfonamide], the negative logarithm of the Ki (pKi) at human MR and at glucocorticoid receptor was more than 6.30 throughout.
For `CS(=O)(=O)Nc1cccc(/C=C2\c3ccc(Cl)cc3CCc3sc(Cl)cc32)c1` [Example 482, N-[3-(2,7-Dichloro-9,10-dihydro-1-thia-benzo[f]azulen-4-ylidenemethyl)-phenyl]-methanesulfonamide], the negative-log Ki (pKi) at human MR and at glucocorticoid receptor was more than 6.30 throughout.
